Assays:
[1] = system: SD rats; test: Subchronic toxicity test in SD rats: clinical observation, body weight; assay type: in vivo; details: for body weight reduced compared with the control group: male rats, 120 mg/kg oral daily
Protocol: The rats that were judged suitable for the subchronic toxicity study were randomly divided into four groups (10 rats/sex/group). The rats received the test sample by gavage once daily for 28 days. HZ1006 was administered to the rats at doses of 120, 60, 20 and 0 (control) mg/kg, and the dosage volume was 5 mL/kg. Half of the 80 rats (half male and half female) were selected randomly according to body weight and dissected at d28. The remaining rats were dissected at d42.
(§1) Clinical symptoms and mortality were examined at least twice daily during the 42-day period, which included any changes in reaction to treatment, behavior, illness, food consumption, and body weight. Breathing rates, rectal temperature and pupil changes in the Beagle dogs were assessed once every 2 weeks.

[2] = system: SD rats; test: Subchronic toxicity test in SD rats: organ weights; assay type: in vivo, Sprague-Dawley (SD) rats; details: for Adrenal gland absolute weight / Brain relative weight: female rats; for Kidney relative weight / Testis absolute weight: male rats
Protocol: The rats that were judged suitable for the subchronic toxicity study were randomly divided into four groups (10 rats/sex/group). The rats received the test sample by gavage once daily for 28 days. HZ1006 was administered to the rats at doses of 120, 60, 20 and 0 (control) mg/kg, and the dosage volume was 5 mL/kg. Half of the 80 rats (half male and half female) were selected randomly according to body weight and dissected at d28. The remaining rats were dissected at […]. After euthanasia, the following organs or tissues were isolated from the dogs and rats: skin, abnormal lesions, spleen, mammary glands, jejunum, pancreas, ileum, duodenum, stomach, colon, cecum, lymph nodes, mesenteric salivary glands, liver, submandibular lymph nodes, thymus, sternum, lungs, heart, esophagus, trachea, tongue, thyroid with parathyroid gland, sciatic nerve, aorta, femurs, skeletal muscle, pituitary gland, brain, kidneys, eyes, urinary bladder, adrenal glands, uterus, ovaries, testes, epididymis and prostate. The weights of the animal organs, such as the liver, spleen, heart, thymus, brain, lungs, adrenal glands, kidneys, uterus, ovaries, epididymis and testes, were tested using an electronic balance. The organs or tissues were fixed using 10% neutral buffered formalin and were then gradient dehydrated, embedded, sectioned, and stained with routine hematoxylin-eosin prior to histopathological observations.

[3] = Toxicokinetics in Beagle dogs; assay type: in vivo; details: for accumulation coefficient R: after 28 days compared with d1; for Tmax / Cmax / half-life / AUC(0-inf): both sexes, Beagle, dog
Protocol: (§2) HZ1006 was administered orally to dogs (four/sex/group) at doses of 80, 40, 20, 5 and 0 (control) mg/kg/day, and the dosage volume was 2 mL/kg. The dogs received test doses with the exact amounts on a weekly basis based on current body weights. […] The other dogs in the above groups were dissected on the planned days. For the other groups, half of the dogs were anatomized on d28 and the remaining half on d42.
The dogs’ blood samples were obtained on the 1st day, the 14th day and the last day (d28) of dosage for plasma HZ1006 content analyses at 0 (1st day only), 1/6, 0.5, 1, 2, 4, 8, 12 and 24 h after dosing, and the blood samples of the rats were acquired on the 1st day and 28th day at the same time as those of the dogs, which were handled and analyzed according to the procedure reported by Zhang et al..

[4] = Subchronic toxicity test in Beagle dogs: overall (NOAEL, urinalysis, ECG); assay type: in vivo; details: both sexes, beagle, dog, in vivo, daily oral administration, 28 days, read-out: NOAEL (No Observed Adverse Effect Level)
Protocol: as §2, §1
The parameters of the dogs’ ECG included the Heart rate, Time at R, P Duration, P-R interval, T Duration, QRS Durations, Q-T Intervals and ST Segment, which were examined by an ECG6511 ECG instrument (manufactured by Shanghai Kohden Medical Electronic Instrument Corp., Shanghai, China) on d0 (twice), d14, d28 and d42 using the II limb lead method.
A Micro AUTION MA-4260 Autoanalyzer from Arkray Global Business, Inc. (kyoto, Japan), was used to analyze the animal urine samples. Parameters such as pH, specific gravity, nitrites, leukocytes, glucose, protein, urobilinogen, ketones, occult blood, bilirubin, and hemoglobin were tested.

[5] = 20 mg/kg oral daily, d42 (recovery)
[6] = 60 mg/kg oral daily, d42 (recovery)
[7] = 120 mg/kg oral daily, d42 (recovery)
[8] = plasma, po, 5 mg/kg/day, 5 mg/kg/day oral, 14 days
[9] = plasma, po, 5 mg/kg/day, 5 mg/kg/day oral, 28 days
[10] = plasma, po, 5 mg/kg/day, 5 mg/kg/day oral, single
[11] = plasma, po, 20 mg/kg/day, 20 mg/kg/day oral, 14 days
[12] = plasma, po, 20 mg/kg/day, 20 mg/kg/day oral, 28 days
[13] = plasma, po, 20 mg/kg/day, 20 mg/kg/day oral, single
[14] = plasma, po, 40 mg/kg/day, 40 mg/kg/day oral, 14 days
[15] = plasma, po, 40 mg/kg/day, 40 mg/kg/day oral, 28 days
[16] = plasma, po, 40 mg/kg/day, 40 mg/kg/day oral, single
[17] = plasma, po, 80 mg/kg/day, 80 mg/kg/day oral, 14 days
[18] = plasma, po, 80 mg/kg/day, 80 mg/kg/day oral, 28 days
[19] = plasma, po, 80 mg/kg/day, 80 mg/kg/day oral, single

CCCCCCCNc1cc(/C=C/C(=O)NO)ccc1OCCN(CC)CC [HZ1006]
body weight reduced compared with the control group ([1]; week 4): 8% | body weight reduced compared with the control group ([1]; week 5): 15% | survival ([1]; rats, 20-120 mg/kg oral daily, 28 days + 14-day recovery): All rats survived until the scheduled necropsies | Adrenal gland absolute weight ([2]; 20 mg/kg oral daily, d28): 0.081 ± 0.005 g | Brain relative weight ([2]; 20 mg/kg oral daily, d28): 0.728 ± 0.047 g/100 g | Adrenal gland absolute weight [2, 5]: 0.072 ± 0.008 g | Brain relative weight [2, 5]: 0.768 ± 0.020 g/100 g | Adrenal gland absolute weight ([2]; 60 mg/kg oral daily, d28): 0.068 ± 0.003 g | Brain relative weight ([2]; 60 mg/kg oral daily, d28): 0.799 ± 0.062 g/100 g | Adrenal gland absolute weight [2, 6]: 0.071 ± 0.012 g | Brain relative weight [2, 6]: 0.768 ± 0.068 g/100 g | Adrenal gland absolute weight ([2]; 120 mg/kg oral daily, d28): 0.066 ± 0.008 g | Brain relative weight ([2]; 120 mg/kg oral daily, d28): 0.834 ± 0.042 g/100 g | Adrenal gland absolute weight [2, 7]: 0.069 ± 0.011 g | Brain relative weight [2, 7]: 0.745 ± 0.089 g/100 g | Kidney relative weight ([2]; 20 mg/kg oral daily, d28): 0.707 ± 0.024 g/100 g | Testis absolute weight ([2]; 20 mg/kg oral daily, d28): 2.707 ± 0.090 g | Kidney relative weight [2, 5]: 0.693 ± 0.033 g/100 g | Testis absolute weight [2, 5]: 2.798 ± 0.112 g | Kidney relative weight ([2]; 60 mg/kg oral daily, d28): 0.705 ± 0.039 g/100 g | Testis absolute weight ([2]; 60 mg/kg oral daily, d28): 2.624 ± 0.170 g | Kidney relative weight [2, 6]: 0.687 ± 0.020 g/100 g | Testis absolute weight [2, 6]: 2.787 ± 0.097 g | Kidney relative weight ([2]; 120 mg/kg oral daily, d28): 0.673 ± 0.023 g/100 g | Testis absolute weight ([2]; 120 mg/kg oral daily, d28): 2.666 ± 0.115 g | Kidney relative weight [2, 7]: 0.624 ± 0.053 g/100 g | Testis absolute weight [2, 7]: 2.723 ± 0.161 g | accumulation coefficient R ([3]; 5 mg/kg/day oral): 1.3 ± 1.2 | accumulation coefficient R ([3]; 80 mg/kg/day oral): 1.2 ± 0.9 | Tmax ([3]; in vivo, 20 mg/kg/day oral, 28 days): 3.17 ± 1.33 h | Cmax ([3]; in vivo, 40 mg/kg/day oral, single): 456 ± 376 ng/mL | half-life ([3]; in vivo, 80 mg/kg/day oral, 28 days): 7.56 ± 3.27 h | AUC(0-inf) [3, 8]: 199 ± 69.6 ng·h/mL | Cmax [3, 8]: 30.1 ± 14.2 ng/mL | Tmax [3, 8]: 4.2 ± 2.01 h | half-life [3, 8]: 4.75 ± 1.23 h | AUC(0-inf) [3, 9]: 616 ± 242 ng·h/mL | Cmax [3, 9]: 65.7 ± 42 ng/mL | Tmax [3, 9]: 4.33 ± 2.94 h | half-life [3, 9]: 7.34 ± 1.02 h | AUC(0-inf) [3, 10]: 193 ± 64.6 ng·h/mL | Cmax [3, 10]: 35.6 ± 15.1 ng/mL | Tmax [3, 10]: 3.67 ± 1.52 h | half-life [3, 10]: 4.4 ± 0.61 h | AUC(0-inf) [3, 11]: 620 ± 249 ng·h/mL | Cmax [3, 11]: 68.1 ± 22.8 ng/mL | Tmax [3, 11]: 4 ± 2.19 h | half-life [3, 11]: 5.21 ± 0.53 h | AUC(0-inf) [3, 12]: 389 ± 104 ng·h/mL | Cmax [3, 12]: 55.2 ± 21.8 ng/mL | half-life [3, 12]: 5.35 ± 0.73 h | AUC(0-inf) [3, 13]: 1190 ± 320 ng·h/mL | Cmax [3, 13]: 139 ± 73.4 ng/mL | Tmax [3, 13]: 3.5 ± 2.51 h | half-life [3, 13]: 5.54 ± 1.53 h | AUC(0-inf) [3, 14]: 1020 ± 977 ng·h/mL | Cmax [3, 14]: 199 ± 175 ng/mL | Tmax [3, 14]: 1.9 ± 1.34 h | half-life [3, 14]: 7.34 ± 3.82 h | AUC(0-inf) [3, 15]: 928 ± 298 ng·h/mL | Cmax [3, 15]: 162 ± 102 ng/mL | Tmax [3, 15]: 2.2 ± 1.1 h | half-life [3, 15]: 5.08 ± 1.04 h | AUC(0-inf) [3, 16]: 2500 ± 1490 ng·h/mL | Tmax [3, 16]: 2.7 ± 2.7 h | half-life [3, 16]: 6.93 ± 3.03 h | AUC(0-inf) [3, 17]: 1550 ± 758 ng·h/mL | Cmax [3, 17]: 174 ± 123 ng/mL | Tmax [3, 17]: 4.43 ± 3.53 h | half-life [3, 17]: 7.23 ± 3.45 h | AUC(0-inf) [3, 18]: 1820 ± 570 ng·h/mL | Cmax [3, 18]: 180 ± 83.4 ng/mL | Tmax [3, 18]: 4.6 ± 3.29 h | AUC(0-inf) [3, 19]: 3870 ± 2630 ng·h/mL | Cmax [3, 19]: 365 ± 257 ng/mL | Tmax [3, 19]: 3.5 ± 2.51 h | half-life [3, 19]: 6.74 ± 2.2 h | NOAEL at 28 days [4]: 5 mg/kg
